In the assay the test system is L1210 leukemia ip in BDF1 mice, survival T/C. As to the kind of experiment: NCI In Vivo Anticancer Drug Screen. Data for tumor model L1210 Leukemia (intraperitoneal) in B6D2F1 (BDF1) mice. The settings on record: endpoint: mean survival time, higher = longer survival. The method in brief: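 Transplanted-tumor mice were given test agent; controls received vehicle only. Survival readings from the two groups were divided (treated over control).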

The mark [1] stands for this setting: dose: 50.0 mg/kg/injection, schedule: Q01DX001 (ip), vehicle: saline.
Setting [2] is: dose: 100.0 mg/kg/injection, schedule: Q01DX001 (ip), vehicle: saline.
[3] abbreviates: dose: 200.0 mg/kg/injection, schedule: Q01DX001 (ip), vehicle: saline.
Where [4] appears, read: dose: 400.0 mg/kg/injection, schedule: Q01DX001 (ip), vehicle: saline.
Where [5] appears, read: dose: 100.0 mg/kg/injection, schedule: Q04DX003 (ip), vehicle: saline with Tween-80.
[6] abbreviates: dose: 200.0 mg/kg/injection, schedule: Q04DX003 (ip), vehicle: saline with Tween-80.
[7] abbreviates: dose: 400.0 mg/kg/injection, schedule: Q04DX003 (ip), vehicle: saline with Tween-80.
Setting [8] is: dose: 100.0 mg/kg/injection, schedule: Q01DX009 (ip), vehicle: saline with Tween-80.
Where [9] appears, read: dose: 200.0 mg/kg/injection, schedule: Q01DX009 (ip), vehicle: saline with Tween-80.
Where [10] appears, read: dose: 400.0 mg/kg/injection, schedule: Q01DX009 (ip), vehicle: saline with Tween-80.
[11] abbreviates: dose: 100.0 mg/kg/injection, schedule: Q01DX001 (ip), vehicle: Klucel (hydroxypropylcellulose) (HPC).
Where [12] appears, read: dose: 100.0 mg/kg/injection, schedule: Q01DX009 (ip), vehicle: Klucel (hydroxypropylcellulose) (HPC).
Setting [13] is: dose: 100.0 mg/kg/injection, schedule: Q04DX003 (ip), vehicle: Klucel (hydroxypropylcellulose) (HPC).
Setting [14] is: dose: 200.0 mg/kg/injection, schedule: Q01DX001 (ip), vehicle: Klucel (hydroxypropylcellulose) (HPC).
The mark [15] stands for this setting: dose: 200.0 mg/kg/injection, schedule: Q01DX009 (ip), vehicle: Klucel (hydroxypropylcellulose) (HPC).
Where [16] appears, read: dose: 200.0 mg/kg/injection, schedule: Q04DX003 (ip), vehicle: Klucel (hydroxypropylcellulose) (HPC).
Setting [17] is: dose: 400.0 mg/kg/injection, schedule: Q01DX001 (ip), vehicle: Klucel (hydroxypropylcellulose) (HPC).
Where [18] appears, read: dose: 400.0 mg/kg/injection, schedule: Q04DX003 (ip), vehicle: Klucel (hydroxypropylcellulose) (HPC).
[19] abbreviates: dose: 50.0 mg/kg/injection, schedule: Q01DX009 (ip), vehicle: saline with Tween-80.

Several values for one entry are separate records, joined by “and”; a condition that tells them apart may be missing. Equal entries are not always repeated. Toxic doses and inconclusive results are not listed.

As for `CC(C)N(N=O)C(C)C`, the T/C is, setting by setting: under setting [1], 104 % of control; under setting [2], 104 % of control; under setting [3], 102 % of control; under setting [4], 98 % of control.
On to `Fc1ccc(NC(=S)SCc2ccc(Cl)cc2)cc1F`, for which the T/C by setting is: under setting [5], 102 % of control; under setting [6], 91 % of control; under setting [7], 102 % of control.
For `c1ccc(-c2cc(-c3ccncc3)c(-c3ccccc3)nn2)cc1`, the T/C runs as follows: (dose: 100.0 mg/kg/injection, schedule: Q04DX003 (ip), vehicle: gum acacia) 102 % of control; (dose: 200.0 mg/kg/injection, schedule: Q04DX003 (ip), vehicle: gum acacia) 96 % of control; (dose: 400.0 mg/kg/injection, schedule: Q04DX003 (ip), vehicle: gum acacia) 96 % of control.
As to `Cc1cc(C)c(C(=O)O)c(C)c1`, the T/C is, setting by setting: under setting [2], 100 % of control; under setting [8], 93 % of control; under setting [3], 96 % of control; under setting [9], 94 % of control; under setting [4], 96 % of control; under setting [10], 94 % of control.
Turning to `CCCC(C#N)(c1ccccc1)c1ccccc1`, the T/C was 97 % of control under setting [11]; 95 % of control under setting [12]; 91 % of control under setting [13]; 92 % of control under setting [14]; 95 % of control under setting [15]; 104 % of control under setting [16]. For the same compound, the T/C is, setting by setting: under setting [17], 102 % of control; under setting [18], 94 % of control.
`c1ccc(-c2cc(-c3ccccc3)c(-c3ccccc3)o2)cc1`: the T/C is 92 % of control (dose: 50.0 mg/kg/injection, schedule: Q01DX001 (ip), vehicle: Klucel (hydroxypropylcellulose) (HPC)); 100 % of control under setting [11]; 92 % of control under setting [14].
As for `Nc1ccc2cc3ccc(N)cc3nc2c1`, the T/C under setting [1] was 120 % of control.
Turning to `Oc1ccc([S+](c2ccc(O)cc2)c2ccc(O)cc2)cc1`, the T/C is, setting by setting: (dose: 5.0 mg/kg/injection, schedule: Q01DX001 (ip), vehicle: saline) 96 % of control; (dose: 10.0 mg/kg/injection, schedule: Q01DX001 (ip), vehicle: saline) 96 % of control; (dose: 20.0 mg/kg/injection, schedule: Q01DX001 (ip), vehicle: saline) 107 % of control; (dose: 40.0 mg/kg/injection, schedule: Q01DX001 (ip), vehicle: saline) 105 % of control.
With `CC[N+](CC)(CCOC(=O)C1C2CC3OC(=O)C1C3C2)Cc1ccccc1` (stereo not given), the T/C runs as follows: (dose: 12.5 mg/kg/injection, schedule: Q04DX003 (ip), vehicle: saline) 89 % of control; (dose: 25.0 mg/kg/injection, schedule: Q04DX003 (ip), vehicle: saline) 89 % of control; (dose: 50.0 mg/kg/injection, schedule: Q04DX003 (ip), vehicle: saline) 106 % of control; (dose: 100.0 mg/kg/injection, schedule: Q04DX003 (ip), vehicle: saline) 93 % of control.
In the case of `CN(C)/N=C/c1nccc2ccccc12`, the T/C is, setting by setting: under setting [1], 98 % of control; under setting [2], 93 % of control; under setting [3], 93 % of control.
In the case of `CCCCCCNC(=O)c1cccc(C(=O)NCCCCCC)c1`, the T/C was 88 % of control (dose: 100.0 mg/kg/injection, schedule: Q04DX002 (ip), vehicle: Klucel (hydroxypropylcellulose) (HPC)); 94 % of control (dose: 200.0 mg/kg/injection, schedule: Q04DX002 (ip), vehicle: Klucel (hydroxypropylcellulose) (HPC)); 98 % of control (dose: 400.0 mg/kg/injection, schedule: Q04DX002 (ip), vehicle: Klucel (hydroxypropylcellulose) (HPC)).
In the case of `FC(F)(F)c1ccc(-c2ccc(OCCN3CCCC3)cc2)cc1`, the T/C is 97 % of control (dose: 4.68 mg/kg/injection, schedule: Q01DX009 (ip), vehicle: saline); 92 % of control (dose: 9.37 mg/kg/injection, schedule: Q01DX009 (ip), vehicle: saline); 94 % of control and 89 % of control (dose: 18.75 mg/kg/injection, schedule: Q01DX009 (ip), vehicle: saline); 90 % of control (dose: 37.5 mg/kg/injection, schedule: Q01DX009 (ip), vehicle: saline); 93 % of control (dose: 37.5 mg/kg/injection, schedule: Q04DX003 (ip), vehicle: saline); 102 % of control (dose: 75.0 mg/kg/injection, schedule: Q04DX003 (ip), vehicle: saline). Moreover, under “dose: 150.0 mg/kg/injection, schedule: Q04DX003 (ip), vehicle: saline”, the T/C is 87 % of control.
Take `CC(C(=O)O)C(NC(=O)c1ccccc1)C(=O)O` (stereo not given): the T/C reads like this: under setting [11], 93 % of control; under setting [14], 100 % of control; under setting [17], 92 % of control.
For `CC(=O)OCCCCc1ccccc1`, the T/C reads like this: under setting [19], 97 % of control; under setting [8], 97 % of control; under setting [9], 87 % of control.
For `O=Cc1cn[nH]c1-c1ccccc1`, the T/C was 97 % of control under setting [12]; 95 % of control under setting [13]; 97 % of control under setting [15]; 98 % of control under setting [16]; 106 % of control (dose: 400.0 mg/kg/injection, schedule: Q01DX009 (ip), vehicle: Klucel (hydroxypropylcellulose) (HPC)); 98 % of control under setting [18].
Consider `CCC[N+]12CC=C3COC(=O)C(C)(O)C(C)(O)C(C)C(=O)OC(CC1)C32` (stereo not given), for which the T/C (dose: 50.0 mg/kg/injection, schedule: Q01DX009 (ip), vehicle: saline) was 92 % of control; the T/C (dose: 100.0 mg/kg/injection, schedule: Q01DX009 (ip), vehicle: saline) is 95 % of control; the T/C (dose: 200.0 mg/kg/injection, schedule: Q01DX009 (ip), vehicle: saline) is 95 % of control.
`CCOC(=O)C(=CNc1cccc2ccncc12)C(=O)OCC`: the T/C runs as follows: under setting [5], 104 % of control; under setting [6], 95 % of control; under setting [7], 117 % of control.
With `S=C=Nc1ccc(Cl)c(Cl)c1`, the T/C reads like this: (dose: 12.5 mg/kg/injection, schedule: Q01DX009 (ip), vehicle: saline with Tween-80) 104 % of control; (dose: 25.0 mg/kg/injection, schedule: Q01DX009 (ip), vehicle: saline with Tween-80) 94 % of control; under setting [19], 102 % of control.
On to `CC(=Nc1c2c(nc3ccccc13)CCCC2)N(C)C`, for which the T/C (dose: 12.0 mg/kg/injection, schedule: Q04DX003 (ip), vehicle: Klucel (hydroxypropylcellulose) (HPC)) is 105 % of control; the T/C (dose: 25.0 mg/kg/injection, schedule: Q04DX003 (ip), vehicle: Klucel (hydroxypropylcellulose) (HPC)) was 100 % of control; the T/C (dose: 50.0 mg/kg/injection, schedule: Q04DX003 (ip), vehicle: Klucel (hydroxypropylcellulose) (HPC)) is 104 % of control.
`C[N+](C)(C)CCS(=O)(=O)Cc1ccccc1`: the T/C (dose: 75.0 mg/kg/injection, schedule: Q01DX001 (ip), vehicle: carboxymethylcellulose (CMC)) is 110 % of control; the T/C (dose: 150.0 mg/kg/injection, schedule: Q01DX001 (ip), vehicle: carboxymethylcellulose (CMC)) was 108 % of control; the T/C (dose: 300.0 mg/kg/injection, schedule: Q01DX001 (ip), vehicle: carboxymethylcellulose (CMC)) is 96 % of control.
In the case of `Oc1ccccc1C=NCCN=Cc1ccccc1O`, the T/C runs as follows: under setting [8], 90 % of control; under setting [9], 92 % of control; under setting [10], 92 % of control.
With `CC(C)C1CCC(NC(=O)N(CCF)N=O)CC1` (stereo not given), the T/C reads like this: (dose: 9.5 mg/kg/injection, schedule: Q01DX001 (ip), vehicle: other) 108 % of control; (dose: 23.0 mg/kg/injection, schedule: Q01DX001 (ip), vehicle: other) 165 % of control; (dose: 30.0 mg/kg/injection, schedule: Q01DX001 (ip), vehicle: other) 187 % of control; (dose: 38.0 mg/kg/injection, schedule: Q01DX001 (ip), vehicle: other) 209 % of control; (dose: 46.0 mg/kg/injection, schedule: Q01DX001 (ip), vehicle: other) 212 % of control; (dose: 62.0 mg/kg/injection, schedule: Q01DX001 (ip), vehicle: other) 312 % of control.

The values are drawn from PubChem BioAssay AID248 (DTP/NCI, 2004).
